From patent publication US6521632B2, “Method for the treatment or prevention of a disease mediated by the alpha-2B-adrenoceptor” (Oy Juvantia Pharma LTD, priority 2000, dated 2003)

Legend:
[1] = biological target: rat neocortical α1-adrenoceptors; experiment: Competition binding with 3H-prazosin, rat neocortex membranes; conditions: concentrations of up to 30 μM
Protocol: Binding Affinity Rat Cortical α1-adrenoceptor
The affinity for rat neocortical α1-adrenoceptors was determined in competition binding assays with ^3H-prazosin. The biological material for these assays consisted of membranes from rat neocortex. Membrane suspensions (100-200 μg of total protein per sample) and 0.2 nM-0.25 nM of ^3H-prazosin (specific activity 74 Ci/mmol) were incubated with 6 concentrations of compounds in a total volume of 0.25 ml (50 mM Tris pH 7.7 at 25° C). Each concentration was run in duplicate. Nonspecific binding was defined by 10 μM phentolamine methanesulfonate and corresponded to 25-30% of total binding. After 30 min at room temperature, incubations was terminated by rapid filtration through GF/B glass-fiber filter mats and three washes with ice-cold 10 mM Tris (pH 7.7 at 4° C.). After drying, a solid scintillate was melted onto the filter mats, and their radioactivity was measured by scintillation counting.

[2] = biological target: T1, human α2A-adrenoceptor (Homo sapiens, UniProt P08913); experiment: Inhibition of epinephrine-stimulated 35S-GTPγS binding, human alpha-2A; type: biochemical; conditions: Mean ± SEM, n minimum three; CHO cell membranes; epinephrine 5 μM; incomplete dose-response curves, KB numbers are minimum estimates; read-out: Antagonist effect KB alpha-2A
T1 sequence (P08913 1-465): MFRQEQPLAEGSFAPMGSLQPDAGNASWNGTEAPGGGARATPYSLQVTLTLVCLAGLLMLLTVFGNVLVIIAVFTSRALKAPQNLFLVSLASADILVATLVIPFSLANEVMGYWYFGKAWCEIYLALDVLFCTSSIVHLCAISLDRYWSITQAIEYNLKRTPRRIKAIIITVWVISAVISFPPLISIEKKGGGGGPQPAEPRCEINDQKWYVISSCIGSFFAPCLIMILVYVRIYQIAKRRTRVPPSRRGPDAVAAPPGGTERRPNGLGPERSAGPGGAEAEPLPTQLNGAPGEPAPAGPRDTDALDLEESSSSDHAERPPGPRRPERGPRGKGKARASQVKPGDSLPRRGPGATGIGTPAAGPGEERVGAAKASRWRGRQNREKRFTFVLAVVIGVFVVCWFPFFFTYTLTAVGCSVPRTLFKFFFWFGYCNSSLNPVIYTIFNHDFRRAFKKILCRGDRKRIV
Protocol: (§1) Antagonist Activity on Human a2-adrenoceptor Subtypes
(§2) Membranes (2-6 μg of protein per samnple) and 12 concentrations of test compound were preincubated for 30 min with a fixed concentration fo epinephrine (5 μM for α2A, 15 μM for α2B, 5 μM for α2C) in 50 mM Tris, 5 mM MgCl2, 150 mM NaCl, 1 mM DTT,
(§3) 1 mM EDTA, 10 μuM GDP, 30 μM ascoerbic acid, pH 7.4 at room temperature. Binding of radiolabel was started by the addition of trace amounts of ^35S-GTPγS (0.08 nM-0.15 nM, specific activity 1250 Ci/mmol) to the incubation mixture. After an additional 60 min at room temperature, the incubation was terminated by rapid vacuum filtration through glass fiber filter. Filters were washed three times with 5 ml icecold wash buffer (20 mM Tris, 5 mM MgCl2, 1 mM EDTA pH 7.4 at room temperature), dried and counted for radioactivity in a scintiallation counter. Analysis of experiments was carried out by nonlinear least square fitting. Experiments were repeated at least three times.

[3] = biological target: T2, human α2B-adrenoceptor (Homo sapiens, UniProt P18089); experiment: Inhibition of epinephrine-stimulated 35S-GTPγS binding, human alpha-2B; type: biochemical; conditions: Mean ± SEM, n minimum three; CHO cell membranes; epinephrine 15 μM; read-out: Antagonist effect KB alpha-2B
T2 sequence (P18089 1-450): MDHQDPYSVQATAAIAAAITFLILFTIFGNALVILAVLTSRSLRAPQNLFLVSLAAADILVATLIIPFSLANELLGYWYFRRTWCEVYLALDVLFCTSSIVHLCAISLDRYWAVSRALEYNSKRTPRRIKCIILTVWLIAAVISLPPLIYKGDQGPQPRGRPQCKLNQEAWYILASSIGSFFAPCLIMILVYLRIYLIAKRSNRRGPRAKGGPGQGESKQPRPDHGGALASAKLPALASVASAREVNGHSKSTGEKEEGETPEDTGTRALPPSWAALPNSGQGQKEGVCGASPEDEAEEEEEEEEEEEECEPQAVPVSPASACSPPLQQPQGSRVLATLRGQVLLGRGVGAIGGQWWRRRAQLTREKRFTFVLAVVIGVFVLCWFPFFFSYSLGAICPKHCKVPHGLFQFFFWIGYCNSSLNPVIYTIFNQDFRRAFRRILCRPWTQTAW
Protocol: as §1, §2, §3

[4] = biological target: T3, human α2C-adrenoceptor (Homo sapiens, UniProt P18825); experiment: Inhibition of epinephrine-stimulated 35S-GTPγS binding, human alpha-2C; type: biochemical; conditions: Mean ± SEM, n minimum three; CHO cell membranes; epinephrine 5 μM; incomplete dose-response curves, KB numbers are minimum estimates; read-out: Antagonist effect KB alpha-2C
T3 sequence (P18825 1-462): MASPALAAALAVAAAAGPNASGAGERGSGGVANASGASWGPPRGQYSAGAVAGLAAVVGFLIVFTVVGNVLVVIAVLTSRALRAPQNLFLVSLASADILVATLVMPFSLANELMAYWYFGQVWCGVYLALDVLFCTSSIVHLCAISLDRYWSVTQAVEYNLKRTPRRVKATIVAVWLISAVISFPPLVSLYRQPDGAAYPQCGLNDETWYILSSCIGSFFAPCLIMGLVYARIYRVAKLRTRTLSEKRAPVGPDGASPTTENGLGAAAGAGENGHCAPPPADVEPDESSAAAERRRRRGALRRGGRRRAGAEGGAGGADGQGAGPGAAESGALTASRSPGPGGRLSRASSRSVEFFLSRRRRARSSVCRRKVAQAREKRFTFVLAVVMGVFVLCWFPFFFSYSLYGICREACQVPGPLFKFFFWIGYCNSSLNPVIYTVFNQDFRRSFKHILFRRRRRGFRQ
Protocol: as §1, §2, §3

[5] = biological target: T1, human α2A-adrenoceptor; experiment: Competition binding with 3H-rauwolscine, human alpha-2A; design: expressed in transfected cells; host or cells: Shionogi S115 cells (membranes); conditions: Mean ± SEM, n = 3 unless indicated, membranes of Shionogi S115 cells, read-out: Binding affinity Ki alpha-2A
Protocol: (§4) Binding Affinity Human Alpha-2-adrenoceptor
(§5) The affinity of test compounds for the three human α2-adrenoceptor subtypes (α2A, α2B and α2C) was determined in competition binding assays with ^3H-rauwolscine. The biological material for these experiments consisted of membranes from Shionogi S115 cells stably transfected with either of the three human α2 subtypes (Marjarnaki et al. 1992). Membrane (5-10 μg of total protein per sample) and 1 nM-2 nM ^3H-rauwolscine (specific activity 78 Ci/mrnmol) were incubated in 50 mM KH2PO4, pH 7.5 with 6 concentrations of the compounds. Each concentration was run in duplicate. Nonspecific binding was defined by 100 μM oxymetazoline and corresponded to 5-15% of total binding. After 30 mim at room temperature, incubations were terminated by rapid vacuum filtration through GF/B glass fiber filter and three 5 ml washes with icecold incubation buffer. The filters were then dried, impregnated with scintillate and their radioactivity was measured by scintillation counting. The analysis of the experiments was carried out by nonlineair least square curve fitting. Experimentally determined IC50 values were converted to Ki's by making use of the Cheng-Prusoff equation (Cheng and Prusoff, 1973). Experiments were repeated a minimum of three times.

[6] = biological target: T2, human α2B-adrenoceptor; experiment: Competition binding with 3H-rauwolscine, human alpha-2B; design: expressed in transfected cells; host or cells: Shionogi S115 cells (membranes); conditions: Mean ± SEM, n = 3 unless indicated, membranes of Shionogi S115 cells, read-out: Binding affinity Ki alpha-2B
Protocol: as §4, §5

[7] = biological target: T3, human α2C-adrenoceptor; experiment: Competition binding with 3H-rauwolscine, human alpha-2C; design: expressed in transfected cells; host or cells: Shionogi S115 cells (membranes); conditions: Mean ± SEM, n = 3 unless indicated, membranes of Shionogi S115 cells, read-out: Binding affinity Ki alpha-2C
Protocol: as §4, §5

Compound | IC50 ([1]; read-out: IC50, displacement of 3H-prazosin) | Ki ([1]; read-out: Ki, displacement of 3H-prazosin) | Kb [2] | Kb [3] | Kb [4] | Ki [5] | Ki [6] | Ki [7]
CCn1c(CNc2ccc(S(=O)(=O)Nc3nc(C)cc(C)n3)cc2)nc2ccccc21 [A] | > 30 µM | > 30 µM | 2.4 ± 0.7 µM | 0.073 ± 0.023 µM | 2.4 ± 0.9 µM | 4.1 ± 0.2 µM | 0.03 ± 0.004 µM | > 4.7 µM
Cc1cc(C)nc(NS(=O)(=O)c2ccc(NCc3nc4ccccc4n3C)cc2)n1 [B] |  |  | > 10 µM | 0.25 ± 0.08 µM | > 10 µM | > 30 µM | 0.215 ± 0.06 µM | > 30 µM
CCOc1ccc(C(=O)Nc2ccc(S(=O)(=O)Nc3nc(C)cc(C)n3)cc2)cc1 [C] |  |  |  |  |  | > 30 µM | 1.86 µM | > 30 µM
Cc1cc(C)nc(NS(=O)(=O)c2ccc(NC(=O)/C=C/c3ccc(F)cc3)cc2)n1 [D] |  |  |  |  |  | > 30 µM | 0.53 ± 0.09 µM | > 30 µM
Cc1cc(C)nc(NS(=O)(=O)c2ccc(NC(=O)COc3ccccc3)cc2)n1 [E] |  |  |  |  |  | > 100 µM | 2.9 ± 0.3 µM | > 100 µM
